Source: ChEMBL document CHEMBL2424554, “Synthesis of new indazole derivatives as potential antioxidant agents” (Med Chem Res, 2013)

Experiment: Antioxidant activity assessed as effective concentration for potassium ferric cyanide ion reducing power equivalent of 0.5 absorbance ellagic acid at 100 to 1000 ug/ml after 20 mins by FRAP assay
Format: functional

Row | Compound | Activity
1 | O=c1c2c([nH]n1-c1ccccc1)C=C(c1ccc(F)cc1)CC2c1ccccc1 (stereo not drawn) | 1.95 mg/mL
2 | O=c1c2c([nH]n1-c1ccccc1)C=C(c1ccc(F)cc1)CC2c1ccc(Cl)cc1 (stereo not drawn) | 1.49 mg/mL
3 | O=c1c2c([nH]n1-c1ccc([N+](=O)[O-])cc1[N+](=O)[O-])C=C(c1ccc(F)cc1)CC2c1ccccc1 (stereo not drawn) | 3.26 mg/mL
4 | O=c1[nH][nH]c2c1C(c1ccc(Br)cc1)CC(c1ccc(F)cc1)=C2 (stereo not drawn) | 1.14 mg/mL
5 | O=c1c2c([nH]n1-c1ccc([N+](=O)[O-])cc1[N+](=O)[O-])C=C(c1ccc(F)cc1)CC2c1ccc(Br)cc1 (stereo not drawn) | 0.76 mg/mL
6 | O=c1c2c([nH]n1-c1ccc([N+](=O)[O-])cc1)C=C(c1ccc(F)cc1)CC2c1ccccc1 (stereo not drawn) | 0.47 mg/mL
7 | O=c1c2c([nH]n1-c1ccc([N+](=O)[O-])cc1)C=C(c1ccc(F)cc1)CC2c1ccc(Cl)cc1 (stereo not drawn) | 0.95 mg/mL
8 | O=c1oc2c(O)c(O)cc3c(=O)oc4c(O)c(O)cc1c4c23 | 0.105 mg/mL
9 | O=c1[nH][nH]c2c1C(c1ccc(Cl)cc1)CC(c1ccc(F)cc1)=C2 (stereo not drawn) | 1.2 mg/mL
10 | O=c1c2c([nH]n1-c1ccc([N+](=O)[O-])cc1[N+](=O)[O-])C=C(c1ccc(F)cc1)CC2c1ccc(Cl)cc1 (stereo not drawn) | 0.75 mg/mL
11 | O=c1c2c([nH]n1-c1ccc([N+](=O)[O-])cc1)C=C(c1ccc(F)cc1)CC2c1ccc(Br)cc1 (stereo not drawn) | 0.64 mg/mL
12 | O=c1[nH][nH]c2c1C(c1ccccc1)CC(c1ccc(F)cc1)=C2 (stereo not drawn) | 0.63 mg/mL
13 | O=c1c2c([nH]n1-c1ccccc1)C=C(c1ccc(F)cc1)CC2c1ccc(Br)cc1 (stereo not drawn) | 0.802 mg/mL

Experiment: Antioxidant activity assessed as ascorbic acid equivalent antioxidant capacity per mg sample after 90 mins by phosphomolybdenum method
Format: functional

Row | Compound | Activity
14 | O=c1c2c([nH]n1-c1ccccc1)C=C(c1ccc(F)cc1)CC2c1ccccc1 (stereo not drawn) | 3.95 µM
15 | O=c1c2c([nH]n1-c1ccccc1)C=C(c1ccc(F)cc1)CC2c1ccc(Cl)cc1 (stereo not drawn) | 2.59 µM
16 | O=c1c2c([nH]n1-c1ccc([N+](=O)[O-])cc1[N+](=O)[O-])C=C(c1ccc(F)cc1)CC2c1ccccc1 (stereo not drawn) | 16.2 µM
17 | O=c1[nH][nH]c2c1C(c1ccc(Br)cc1)CC(c1ccc(F)cc1)=C2 (stereo not drawn) | 1.17 µM
18 | O=c1c2c([nH]n1-c1ccc([N+](=O)[O-])cc1[N+](=O)[O-])C=C(c1ccc(F)cc1)CC2c1ccc(Br)cc1 (stereo not drawn) | 4.69 µM
19 | O=c1c2c([nH]n1-c1ccc([N+](=O)[O-])cc1)C=C(c1ccc(F)cc1)CC2c1ccccc1 (stereo not drawn) | 0.69 µM
20 | O=c1c2c([nH]n1-c1ccc([N+](=O)[O-])cc1)C=C(c1ccc(F)cc1)CC2c1ccc(Cl)cc1 (stereo not drawn) | 6.22 µM
21 | O=c1[nH][nH]c2c1C(c1ccc(Cl)cc1)CC(c1ccc(F)cc1)=C2 (stereo not drawn) | 8.4 µM
22 | O=c1c2c([nH]n1-c1ccc([N+](=O)[O-])cc1[N+](=O)[O-])C=C(c1ccc(F)cc1)CC2c1ccc(Cl)cc1 (stereo not drawn) | 7.83 µM
23 | O=c1c2c([nH]n1-c1ccc([N+](=O)[O-])cc1)C=C(c1ccc(F)cc1)CC2c1ccc(Br)cc1 (stereo not drawn) | 0.58 µM
24 | O=c1[nH][nH]c2c1C(c1ccccc1)CC(c1ccc(F)cc1)=C2 (stereo not drawn) | 4.75 µM
25 | O=c1c2c([nH]n1-c1ccccc1)C=C(c1ccc(F)cc1)CC2c1ccc(Br)cc1 (stereo not drawn) | 1.97 µM

Experiment: Antioxidant activity assessed as DPPH scavenging activity after 20 mins by spectrophotometry
Format: functional
Set-up: concentration or dose not given beside the values

Row | Compound | Activity
26 | O=c1c2c([nH]n1-c1ccccc1)C=C(c1ccc(F)cc1)CC2c1ccccc1 (stereo not drawn) | 90.2%
27 | O=c1c2c([nH]n1-c1ccccc1)C=C(c1ccc(F)cc1)CC2c1ccc(Cl)cc1 (stereo not drawn) | 94%
28 | O=c1c2c([nH]n1-c1ccc([N+](=O)[O-])cc1[N+](=O)[O-])C=C(c1ccc(F)cc1)CC2c1ccccc1 (stereo not drawn) | 4.21%
29 | O=c1[nH][nH]c2c1C(c1ccc(Br)cc1)CC(c1ccc(F)cc1)=C2 (stereo not drawn) | 16.2%
30 | O=c1c2c([nH]n1-c1ccc([N+](=O)[O-])cc1[N+](=O)[O-])C=C(c1ccc(F)cc1)CC2c1ccc(Br)cc1 (stereo not drawn) | 2.34%
31 | O=c1c2c([nH]n1-c1ccc([N+](=O)[O-])cc1)C=C(c1ccc(F)cc1)CC2c1ccccc1 (stereo not drawn) | 89.6%
32 | O=c1c2c([nH]n1-c1ccc([N+](=O)[O-])cc1)C=C(c1ccc(F)cc1)CC2c1ccc(Cl)cc1 (stereo not drawn) | 84.4%
33 | N[C@@H](CCC(=O)N[C@@H](CS)C(=O)NCC(=O)O)C(=O)O | 92.1%
34 | O=c1[nH][nH]c2c1C(c1ccc(Cl)cc1)CC(c1ccc(F)cc1)=C2 (stereo not drawn) | 17.9%
35 | O=c1c2c([nH]n1-c1ccc([N+](=O)[O-])cc1[N+](=O)[O-])C=C(c1ccc(F)cc1)CC2c1ccc(Cl)cc1 (stereo not drawn) | 19.6%
36 | O=c1c2c([nH]n1-c1ccc([N+](=O)[O-])cc1)C=C(c1ccc(F)cc1)CC2c1ccc(Br)cc1 (stereo not drawn) | 85.3%
37 | O=c1[nH][nH]c2c1C(c1ccccc1)CC(c1ccc(F)cc1)=C2 (stereo not drawn) | 19.8%
38 | O=c1c2c([nH]n1-c1ccccc1)C=C(c1ccc(F)cc1)CC2c1ccc(Br)cc1 (stereo not drawn) | 96.8%
